Laboratory results reported in patent publication US20230416271A1, “HETEROARYLQUINAZOLINE COMPOUNDS AS PROTEIN KINASE INHIBITORS” (CHENGDU CYNOGEN BIO-PHARMACEUTICAL TECHNOLOGY CO., LTD., priority 2020, published 2023).

Columns and labels:
Format in all cases: biochemical
[1] = target: CDK9/cyclin T1 (Homo sapiens (Human), UniProt P50750); experiment: Kinase activity assay (Caliper Mobility Shift Assay), CDK9/cyclin T1
Method: (§1) The inhibitory effect of compounds against the kinase CDK4/cyclin D3 was detected by Caliper Mobility Shift Assay method. The final concentration of the compounds to be tested was set at 10 concentrations starting from 1 uM by 3-fold serial dilution. 5 μL of compounds at 5-fold final concentration and 10 μL of CDK4/cyclin D3 kinase solution at a final concentration of 10 nM was added to a 384-well reaction plate, respectively. The plate was pre-incubated for 10 min at room temperature (with negative control wells containing 10 uL of kinase buffer and 5 uL of 5% DMSO; positive control wells containing 10 μL of kinase solution and 5 uL of 5% DMSO). The reaction was initiated by adding 10 μL of ATP at a final concentration of 250 uM and the corresponding substrate peptide mixture at room temperature for 150 minutes. 30 uL of stop detection solution containing EDTA was added to stop the kinase reaction. Caliper EZ Reader was used to read the conversion rate. Conversion inhibition rate %=(average conversion rate of positive control %−conversion rate of sample %)/(average conversion rate of positive control %−average conversion rate of negative control %). wherein: negative control wells represent the conversion rate readings of wells without enzymatic activity; positive control wells represent conversion readings for wells with no compound inhibition. The log(inhibitor) vs. response—Variable slope of the analysis software GraphPad Prism 5 was used with log concentration value as the X-axis and the percent inhibition rate as the Y-axis to fit the dose-response curve, the IC50 value of each compound on the enzyme activity was thus obtained. Calculation formula: Y=Bottom+(Top−Bottom)/(1+10^((Log IC50−X)*HillSlope)).
(§2) The IC50 values and inhibitory activities of compounds of the present disclosure on CDK6/Cyclin D3, CDK2/Cyclin A2, and CDK9/cyclin T1 were tested in a similar manner.

[2] = target: CDK6/Cyclin D3 (Homo sapiens (Human), UniProt Q00534); experiment: Kinase activity assay (Caliper Mobility Shift Assay), CDK6/Cyclin D3
Method: as §1, §2

[3] = target: CDK4/cyclin D3 (Homo sapiens (Human), UniProt P11802); experiment: Kinase activity assay (Caliper Mobility Shift Assay), CDK4/cyclin D3; conditions: 10 nM kinase, 250 uM ATP
Method: as §1

[4] = target: CDK2/Cyclin A2 (Homo sapiens (Human), UniProt P24941); experiment: Kinase activity assay (Caliper Mobility Shift Assay), CDK2/Cyclin A2
Method: as §1, §2

Sequence of CDK4/cyclin D3 (P11802 whole entry, species assumed): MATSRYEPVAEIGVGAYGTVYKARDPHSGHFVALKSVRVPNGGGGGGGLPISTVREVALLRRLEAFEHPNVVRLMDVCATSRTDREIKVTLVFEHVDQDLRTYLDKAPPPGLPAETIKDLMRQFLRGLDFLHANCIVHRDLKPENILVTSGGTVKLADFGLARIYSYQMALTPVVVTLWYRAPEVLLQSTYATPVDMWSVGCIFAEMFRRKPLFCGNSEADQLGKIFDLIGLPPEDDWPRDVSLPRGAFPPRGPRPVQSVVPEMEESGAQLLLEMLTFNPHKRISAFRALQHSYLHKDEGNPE
Sequence of CDK4/cyclin D3 (P30281 whole entry partner, species assumed): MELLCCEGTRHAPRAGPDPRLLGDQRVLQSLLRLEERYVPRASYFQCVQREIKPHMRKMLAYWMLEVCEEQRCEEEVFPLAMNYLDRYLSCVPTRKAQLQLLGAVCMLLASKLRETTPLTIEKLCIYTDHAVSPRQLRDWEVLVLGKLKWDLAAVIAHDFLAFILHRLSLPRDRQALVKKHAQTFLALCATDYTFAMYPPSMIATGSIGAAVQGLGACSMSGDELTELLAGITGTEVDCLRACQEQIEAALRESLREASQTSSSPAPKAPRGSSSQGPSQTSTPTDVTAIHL
Sequence of CDK6/Cyclin D3 (Q00534 whole entry, species assumed): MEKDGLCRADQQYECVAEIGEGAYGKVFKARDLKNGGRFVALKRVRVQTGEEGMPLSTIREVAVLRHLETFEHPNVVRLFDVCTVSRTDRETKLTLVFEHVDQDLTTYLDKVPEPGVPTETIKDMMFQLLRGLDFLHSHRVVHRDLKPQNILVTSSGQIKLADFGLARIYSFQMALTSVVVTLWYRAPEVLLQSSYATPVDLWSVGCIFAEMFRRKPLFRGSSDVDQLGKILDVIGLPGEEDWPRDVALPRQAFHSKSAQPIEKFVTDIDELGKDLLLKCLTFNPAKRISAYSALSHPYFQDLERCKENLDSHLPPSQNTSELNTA
Sequence of CDK6/Cyclin D3 (P30281 whole entry partner, species assumed): as the sequence (P30281 whole entry partner, species assumed) above
Sequence of CDK9/cyclin T1 (P50750 whole entry, species assumed): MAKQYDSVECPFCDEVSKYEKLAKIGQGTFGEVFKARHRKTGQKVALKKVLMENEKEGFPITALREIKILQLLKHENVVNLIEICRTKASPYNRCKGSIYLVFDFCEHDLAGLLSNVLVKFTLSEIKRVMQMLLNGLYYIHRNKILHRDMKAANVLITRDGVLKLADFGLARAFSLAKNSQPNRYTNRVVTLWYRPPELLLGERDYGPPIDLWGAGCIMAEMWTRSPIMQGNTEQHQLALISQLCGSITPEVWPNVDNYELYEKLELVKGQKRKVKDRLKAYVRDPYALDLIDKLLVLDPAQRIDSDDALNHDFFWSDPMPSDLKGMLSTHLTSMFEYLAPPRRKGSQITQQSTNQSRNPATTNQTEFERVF
Sequence of CDK9/cyclin T1 (O60563 whole entry partner, species assumed): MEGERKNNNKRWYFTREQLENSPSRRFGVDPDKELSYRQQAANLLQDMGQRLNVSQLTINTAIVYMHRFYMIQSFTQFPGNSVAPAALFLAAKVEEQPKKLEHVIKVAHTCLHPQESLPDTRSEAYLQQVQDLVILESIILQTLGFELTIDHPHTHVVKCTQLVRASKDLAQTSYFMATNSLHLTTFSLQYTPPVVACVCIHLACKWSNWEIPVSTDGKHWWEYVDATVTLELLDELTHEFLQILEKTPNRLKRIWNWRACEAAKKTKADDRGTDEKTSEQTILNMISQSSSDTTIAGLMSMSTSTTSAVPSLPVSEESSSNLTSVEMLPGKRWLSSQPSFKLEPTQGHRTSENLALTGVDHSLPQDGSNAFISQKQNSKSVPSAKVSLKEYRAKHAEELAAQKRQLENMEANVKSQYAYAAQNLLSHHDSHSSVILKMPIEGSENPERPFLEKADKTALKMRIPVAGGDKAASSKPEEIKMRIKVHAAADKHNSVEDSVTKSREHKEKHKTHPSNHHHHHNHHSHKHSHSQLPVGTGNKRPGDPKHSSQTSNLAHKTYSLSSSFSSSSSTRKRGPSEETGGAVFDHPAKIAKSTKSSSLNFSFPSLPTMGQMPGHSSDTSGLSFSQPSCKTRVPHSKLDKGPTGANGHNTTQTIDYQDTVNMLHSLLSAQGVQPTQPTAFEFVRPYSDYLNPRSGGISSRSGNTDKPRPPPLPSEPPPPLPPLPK

| IC50 [1] | IC50 [2] | IC50 [3] | IC50 [4] | SMILES |
| --- | --- | --- | --- | --- |
| 25 nM | 36 nM | 32 nM | 42 nM | CC(C)c1noc2ccc3cnc(N[C@H]4CC[C@H](NC5CCOCC5)CC4)nc3c12 [I.1, (1R,4R)-N^1-(9-isopropylisoxazolo[5,4-h]quinazolin-2-yl)-N^4-(tetrahydro-2H-pyran-4-yl)cyclohexane-1,4-diamine] |
|  | 90 nM | 41 nM | 110 nM | CC(C)n1nnc2ccc3cnc(NC4CCN(C)CC4)nc3c21 [II.13, 1-isopropyl-N-(1-methylpiperidin-4-yl)-1H-[1,2,3]triazolo [4,5-h]quinazolin-8-amine] |
|  | 5 nM | 3 nM | 0.2 nM | CC(C)n1nnc2ccc3cnc(NC4CCN(S(C)(=O)=O)CC4)nc3c21 [II.14, 1-isopropyl-N-(1-(methylsulfonyl)piperidin-4-yl)-1H-[1,2,3] triazolo[4,5-h]quinazolin-8-amine] |
|  | 4 nM | 3 nM | 0.3 nM | CCS(=O)(=O)N1CCC(Nc2ncc3ccc4nnn(C(C)C)c4c3n2)CC1 [II.15, N-(1-(ethylsulfonyl)piperidin-4-yl)-1-isopropyl-1H-[1,2,3] triazolo[4,5-h]quinazolin-8-amine] |
|  | 5 nM | 3 nM | 0.2 nM | CC(C)n1nnc2ccc3cnc(NC4CCN(S(=O)(=O)C5CC5)CC4)nc3c21 [II.16, N-(1-(cyclopropylsulfonyl)piperidin-4-yl)-1-isopropyl-1H-[1,2,3]triazolo[4,5-h]quinazolin-8-amine] |
|  | 15 nM | 8 nM | 1 nM | CC(C)n1nnc2ccc3cnc(NC4CCN(S(=O)(=O)CC5CC5)CC4)nc3c21 [II.17, N-(1-((cyclopropylmethyl)sulfonyl)piperidin-4-yl)-1-iso-propyl-1H-[1,2,3]triazolo[4,5-h]quinazolin-8-amine] |
|  | 8 nM | 3 nM | 1 nM | COCCS(=O)(=O)N1CCC(Nc2ncc3ccc4nnn(C(C)C)c4c3n2)CC1 [II.18, 1-isopropyl-N-(1-((2-methoxyethyl)sulfonyl)piperidin-4-yl)-1H-[1,2,3]triazolo[4,5-h]quinazolin-8-amine] |
|  | 4 nM | 3 nM | 0.4 nM | CC(C)n1nnc2ccc3cnc(NC4CCN(S(=O)(=O)C(F)F)CC4)nc3c21 [II.19, N-(1-((difluoromethyl)sulfonyl)piperidin-4-yl)-1-isopropyl-1H-[1,2,3]triazolo[4,5-h]quinazolin-8-amine] |
|  | 12 nM | 4 nM | 0.2 nM | CNS(=O)(=O)N1CCC(Nc2ncc3ccc4nnn(C(C)C)c4c3n2)CC1 [II.20, 4-((1-isopropyl-1H-[1,2,3]triazolo[4,5-h]quinazolin-8-yl)amino)-N-methylpiperidin-1-sulfamide] |
|  | 5 nM | 2 nM | 0.2 nM | CC(C)n1nnc2c(F)cc3cnc(NC4CCN(S(C)(=O)=O)CC4)nc3c21 [II.21, 4-fluoro-1-isopropyl-N-(1-(methylsulfonyl)piperidin-4-yl)-1H-[1,2,3]triazolo[4,5-h]quinazolin-8-amine] |
|  | 4 nM | 3 nM | 0.2 nM | CC(C)n1nnc2cc(F)c3cnc(NC4CCN(S(C)(=O)=O)CC4)nc3c21 [II.22, 5-fluoro-1-isopropyl-N-(1-(methylsulfonyl)piperidin-4-yl)-1H-[1,2,3]triazolo[4,5-h]quinazolin-8-amine] |
|  | 9 nM | 3 nM | 0.4 nM | CC(C)n1nnc2c(Cl)cc3cnc(NC4CCN(S(C)(=O)=O)CC4)nc3c21 [II.23, 4-chloro-1-isopropyl-N-(1-(methylsulfonyl)piperidin-4-yl)-1H-[1,2,3]triazolo[4,5-h]quinazolin-8-amine] |
|  | 16 nM | 4 nM | 1 nM | CC(C)n1nnc2c(Br)cc3cnc(NC4CCN(S(C)(=O)=O)CC4)nc3c21 [II.24, 4-bromo-1-isopropyl-N-(1-(methylsulfonyl)piperidin-4-yl)-1H-[1,2,3]triazolo[4,5-h]quinazolin-8-amine] |
|  | 5 nM | 3 nM | 0.2 nM | [2H]c1cc2cnc(NC3CCN(S(C)(=O)=O)CC3)nc2c2c1nnn2C(C)C [II.25, 1-isopropyl-N-(1-(methylsulfonyl)piperidin-4-yl)-1H-[1,2,3]triazolo [4,5-h]quinazolin-4-d-8-amine] |
|  | 8 nM | 3 nM | 0.4 nM | Cc1cc2cnc(NC3CCN(S(C)(=O)=O)CC3)nc2c2c1nnn2C(C)C [II.26, 1-isopropyl-4-methyl-N-(1-(methylsulfonyl)piperidin-4-yl)-1H-[1,2,3] triazolo[4,5-h]quinazolin-8-amine] |
|  | 5 nM | 3 nM | 0.2 nM | CC(C)n1nnc2c(C(F)F)cc3cnc(NC4CCN(S(C)(=O)=O)CC4)nc3c21 [II.27, 4-(difluoromethyl)-1-isopropyl-N-(1-(methylsulfonyl)piperidin-4-yl)-1H-[1,2,3]triazolo[4,5-h]quinazolin-8-amine] |
|  | 7 nM | 3 nM | 0.2 nM | CCS(=O)(=O)N1CCC(Nc2ncc3cc(C(F)F)c4nnn(C(C)C)c4c3n2)CC1 [II.28, 4-(difluoromethyl)-N-(1-(ethylsulfonyl)piperidin-4-yl)-1-isopropyl-1H-[1,2,3]triazolo[4,5-h]quinazolin-8-amine] |
|  | 3 nM | 1 nM | 0.2 nM | CC(C)n1nnc2c(C(F)F)cc3cnc(NC4CCN(S(=O)(=O)C5CC5)CC4)nc3c21 [II.29, N-(1-(cyclopropylsulfonyl)piperidin-4-yl)-4-(difluoromethyl)-1-isopropyl-1H-[1,2,3]triazolo[4,5-h]quinazolin-8-amine] |
|  | 6 nM | 3 nM | 0.3 nM | CC(C)n1nnc2c(C(F)F)cc3cnc(NC4CCN(S(=O)(=O)C(F)F)CC4)nc3c21 [II.30, 4-(difluoromethyl)-N-(1-((difluoromethyl)sulfonyl)piperidin-4-yl)-1-isopropyl-1H-[1,2,3]triazolo[4,5-h]quinazolin-8-amine] |
|  | 2 nM | 1 nM | 0.2 nM | CC(C)n1nnc2c(CC(F)(F)F)cc3cnc(NC4CCN(S(C)(=O)=O)CC4)nc3c21 [II.31, 1-isopropyl-N-(1-(methylsulfonyl)piperidin-4-yl)-4-(2,2,2-trifluoro-ethyl)-1H-[1,2,3]triazolo[4,5-h]quinazolin-8-amine] |
|  | 9 nM | 5 nM | 0.2 nM | C[C@@]1(O)CCC[C@H]1n1nnc2ccc3cnc(NC4CCN(S(C)(=O)=O)CC4)nc3c21 [II.32, (1R,2R)-1-methyl-2-(8-((1-(methylsulfonyl)piperidin-4-yl)amino)-1H-[1,2,3]triazolo[4,5-h]quinazolin-1-yl)cyclopentan-1-ol] |
|  | 5 nM | 3 nM | 0.3 nM | C[C@@]1(O)CCC[C@H]1n1nnc2c(C(F)F)cc3cnc(NC4CCN(S(C)(=O)=O)CC4)nc3c21 [II.33] |
|  | 35 nM | 55 nM | 296 nM | CC(C)n1nnc2ccc3cnc(NC4CCCNC4)nc3c21 (stereo not shown) [II.34, 1-isopropyl-N-(piperidin-3-yl)-1H-[1,2,3]triazolo[4,5-h]quinazolin-8-amine] |
|  | 58 nM | 50 nM | 10 nM | CC(C)n1nnc2ccc3cnc(NC4CCC(=O)NC4)nc3c21 (stereo not shown) [II.35, 5-((1-isopropyl-1H-[1,2,3]triazolo[4,5-h]quinazolin-8-yl)amino)piperidin-2-one] |
|  | 446 nM | 253 nM | > 500 nM | CC(C)n1nnc2ccc3cnc(NC4CCCNC4=O)nc3c21 (stereo not shown) [II.36, 3-((1-isopropyl-1H-[1,2,3]triazolo[4,5-h]quinazolin-8-yl)amino)piperidin-2-one] |
|  | 12 nM | 4 nM | 0.5 nM | CC(C)n1nnc2c1-c1nc(NC3CCN(S(C)(=O)=O)CC3)ncc1CC2 [II.37, 1-isopropyl-N-(1-(methylsulfonyl)piperidin-4-yl)-4,5-dihydro-1H-[1,2,3]triazolo[4,5-h]quinazolin-8-amine] |
|  | 7 nM | 3 nM | 0.3 nM | CC(C)n1nnc2c1-c1nc(NC3CCN(S(=O)(=O)C4CC4)CC3)ncc1CC2 [II.38, N-(1-(cyclopropylsulfonyl)piperidin-4-yl)-1-isopropyl-4,5-dihydro-1H-[1,2,3]triazolo[4,5-h]quinazolin-8-amine] |
|  | 10 nM | 3 nM | 0.5 nM | CC(C)n1nnc2c1-c1nc(NC3CCN(S(=O)(=O)C(F)F)CC3)ncc1CC2 [II.39, N-(1-((difluoromethyl)sulfonyl)piperidin-4-yl)-1-isopropyl-4,5-dihydro-1H-[1,2,3]triazolo[4,5-h]quinazolin-8-amine] |
